Values quoted from earlier work as cited in patent US20030152481A1 (priority 2002, published 2003).

Details: rat, in vivo

In the case of `OCCc1ccccc1` [2-phenylethanol], the “oral LD50” value is given as 1790 mg/kg.
